Measured values: ChEMBL document CHEMBL1157733, “Isolation, structure, and bioactivities of abiesadines A-Y, 25 new diterpenes from Abies georgei Orr” (Bioorg Med Chem, 2010)
In brackets after ≈: the same amount, converted by molar mass.

Legend:
[1] = Antiproliferative activity against human QGY7703 cells; assay type: functional, cell-based; conditions: QGY-7703
[2] = tested on: RAW264.7; experiment: Antiinflammatory activity in mouse RAW264.7 cells assessed as inhibition of LPS-induced NO release; assay type: functional, cell-based
[3] = Inhibition of TNF-alpha-induced NF-kappaB activity in human pNF-kappaB-luc-293 cells; assay type: cell-based; conditions: HEK293
[4] = tested on: LoVo; experiment: Antiproliferative activity against human LoVo cells; assay type: functional, cell-based

**Q.** With `C=C[C@@](C)(O)CCC1C(=C)CC[C@H]2[C@](C)(CO)CCC[C@]12C` (some centres undefined) [TORREFEROL] as the molecule, how does the IC50 [1] read?
**A.** > 25 µg/mL

**Q.** What about the IC50 [2] of the same molecule?
**A.** > 100 µg/mL

**Q.** And the IC50 [3]?
**A.** > 100 µg/mL

**Q.** And the IC50 [4]?
**A.** 24.3 µg/mL (≈ 79.3 µM)
